Molecular target: T1, human GPR119 (Homo sapiens, UniProt Q8TDV5)
T1 construct: expression vector for human GPR119 cDNA (Acc. No. NP_848566); expressed in transfected cells
T1 sequence (Q8TDV5 1-335): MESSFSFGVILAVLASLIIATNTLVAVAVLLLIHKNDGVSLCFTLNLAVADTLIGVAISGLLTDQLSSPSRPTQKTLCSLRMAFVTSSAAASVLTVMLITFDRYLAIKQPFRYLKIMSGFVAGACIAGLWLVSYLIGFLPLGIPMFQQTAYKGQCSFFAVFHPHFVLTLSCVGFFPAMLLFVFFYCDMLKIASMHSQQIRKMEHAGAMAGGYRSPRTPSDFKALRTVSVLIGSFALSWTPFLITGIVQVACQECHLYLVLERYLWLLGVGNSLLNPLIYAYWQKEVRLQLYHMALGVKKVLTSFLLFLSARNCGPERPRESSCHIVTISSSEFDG
Assay: AlphaScreen cAMP assay in MIN6 cells stably transfected with human GPR119
Type: cell-based
Conditions: Min-6/hGPR119 cells, 45 minutes incubation at room temperature
Description: The compounds of formula I according to the invention modulate the activity of the G-protein-coupled receptor GPR119. The effect of the compounds on the activation of GPR119 and on the stimulation of intracellular cAMP concentration is determined using the AlphaScreen cAMP Assay Kit (Cat.No.#6760625R) made by PerkinElmer.
MIN6 cells [Miyazaki J et al. Endocrinology. 1990 July; 127(1):126-32] are stably transfected with an expression vector for human GPR119 cDNA (Acc. No. NP_848566). Min-6/hGPR119 cells are cultured in DMEM, 10% FBS, 50 μM β-mercaptoethanol, 0.3 mg/mL Geniticin, 2 mM GlutaMAX at 37° C. 5% CO2. For the assay, the cells are seeded in Optiplates (white, 384-well, 160W-barcoded, TC, sterile with lid, Cat.No.#6007688 (Perkin Elmer); 10000 cells/well; 50 μl). The plates covered with lids are then incubated for 24 hours at 37° C./5% CO2. After the medium is aspirated from the wells completely, 10 μl of the test compound are added, the compounds are diluted using stimulating buffer (140 mM NaCl, 3.6 mM KCl, 0.5 mM NaH2PO4, 0.5 mM MgSO4, 1.5 mM CaCl2, 10 mM Hepes, 5 mM NaHCO3; pH 7.4. 0.5 mM IBMX and 0.1% BSA, the final DMSO concentration is 1%). After 45 minutes incubation at room temperature (approx. 20° C.), the cAMP concentrations are determined using the AlphaScreen cAMP Assay Kit (Cat.No.#6760625R from PerkinElmer).

SMILES	EC50 [nM]
O=C(c1cnc(-n2ccnc2)nc1)N(C1CC1)C1CCN(c2nc(-c3ccccc3)no2)CC1 [Example 1, 2-Imidazol-1-yl-pyrimidine-5-carboxylic acid cyclopropyl-[1-(3-phenyl-[1,2,4]oxadiazol-5-yl)-piperidin-4-yl]-amide]	31
O=C(c1cnc(-c2ccncc2)nc1)N(C1CC1)C1CCN(c2nc(-c3ccccc3)no2)CC1 [Example 2, 2-Pyridin-4-yl-pyrimidine-5-carboxylic acid cyclopropyl-[1-(3-phenyl-[1,2,4]oxadiazol-5-yl)-piperidin-4-yl]-amide]	11
CCOc1ccc(-c2ncc(C(=O)N(C3CC3)C3CCN(c4ncc(CC)cn4)CC3)cn2)cn1 [Example 3, 2-(6-Ethoxy-pyridin-3-yl)-pyrimidine-5-carboxylic acid cyclopropyl-[1-(5-ethyl-pyrimidin-2-yl)-piperidin-4-yl]-amide]	487
CCc1cnc(N2CCC(N(C(=O)c3cnc(-c4ccc(C#N)c(F)c4)nc3)C3CC3)CC2)nc1 [Example 4]	94
CCc1cnc(N2CCC(N(C(=O)c3cnc(-c4ccc(CC#N)cc4)nc3)C3CC3)CC2)nc1 [Example 5, 2-(4-Cyanomethyl-phenyl)-pyrimidine-5-carboxylic acid cyclopropyl-[1-(5-ethyl-pyrimidin-2-yl)-piperidin-4-yl]-amide]	118
CC(C)c1noc(N2CCC(N(C(=O)c3ccc(-c4ccc(S(C)(=O)=O)cc4)nc3)C3CC3)CC2)n1 [Example 6, N-Cyclopropyl-N-[1-(3-isopropyl-[1,2,4]oxadiazol-5-yl)-piperidin-4-yl]-6-(4-methanesulfonyl-phenyl)-nicotinamide]	96
CCOc1ccc(-c2ncc(C(=O)N(C3CC3)C3CCN(c4nc(-c5ccccc5)no4)CC3)cn2)cn1 [Example 7, 2-(6-Ethoxy-pyridin-3-yl)-pyrimidine-5-carboxylic acid cyclopropyl-[1-(3-phenyl[1,2,4]oxadiazol-5-yl)-piperidin-4-yl]amide]	25
CCc1noc(N2CCC(N(C(=O)c3cnc(-c4ccc(CC#N)cc4)nc3)C3CC3)CC2)n1 [Example 8, 2-(4-Cyanomethyl-phenyl)-pyrimidine-5-carboxylic acid cyclopropyl-[1-(3-ethyl-[1,2,4]oxadiazol-5-yl)-piperidin-4-yl]-amide]	36
N#CCc1ccc(-c2ncc(C(=O)N(C3CC3)C3CCN(c4nc(-c5ccccc5)no4)CC3)cn2)cc1 [Example 9, 2-(4-Cyanomethyl-phenyl)-pyrimidine-5-carboxylic acid cyclopropyl-[1-(3-phenyl-[1,2,4]oxadiazol-5-yl)-piperidin-4-yl]-amide]	19
CCOc1ccc(-c2ncc(C(=O)N(C3CC3)C3CCN(c4nc(CC)no4)CC3)cn2)cn1 [Example 10, 2-(6-Ethoxy-pyridin-3-yl)-pyrimidine-5-carboxylic acid cyclopropyl-[1-(3-ethyl-[1,2,4]oxadiazol-5-yl)-piperidin-4-yl]-amide]	101
CCc1noc(N2CCC(N(C(=O)c3cnc(-c4ccc(C#N)c(F)c4)nc3)C3CC3)CC2)n1 [Example 11, 2-(4-Cyano-3-fluoro-phenyl)-pyrimidine-5-carboxylic acid cyclopropyl-[1-(3-ethyl-[1,2,4]oxadiazol-5-yl)-piperidin-4-yl]-amide]	32
CCc1cnc(N2CCC(N(C(=O)c3cnc(-n4ccnc4)nc3)C3CC3)CC2)nc1 [Example 12, 2-Imidazol-1-yl-pyrimidine-5-carboxylic acid cyclopropyl-[1-(5-ethyl-pyrimidin-2-yl)-piperidin-4-yl]-amide]	35
CCc1cnc(N2CCC(N(C(=O)c3cnc(-c4ccc(S(C)(=O)=O)cc4)nc3)C3CC3)CC2)nc1 [Example 13, 2-(4-Methanesulfonyl-phenyl)-pyrimidine-5-carboxylic acid cyclopropyl-[1-(5-ethyl-pyrimidin-2-yl)-piperidin-4-yl]-amide]	24

Molecular target: T2, mutant form of the human GPR119 receptor (Homo sapiens, UniProt Q8TDV5, S329A/T327A)
T2 construct: expressed in transfected cells
T2 sequence (Q8TDV5 with tags, fused parts or gaps T327A/S329A): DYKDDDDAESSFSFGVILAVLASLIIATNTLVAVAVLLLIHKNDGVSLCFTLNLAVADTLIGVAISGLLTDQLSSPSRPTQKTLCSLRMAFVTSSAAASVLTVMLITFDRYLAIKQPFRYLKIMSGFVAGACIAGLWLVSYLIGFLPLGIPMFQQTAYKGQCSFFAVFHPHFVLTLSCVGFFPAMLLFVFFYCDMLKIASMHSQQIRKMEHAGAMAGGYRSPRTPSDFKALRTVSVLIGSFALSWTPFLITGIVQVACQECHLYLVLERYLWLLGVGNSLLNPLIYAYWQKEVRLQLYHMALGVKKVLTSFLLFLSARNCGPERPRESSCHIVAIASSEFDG
Assay: LANCE cAMP-384 assay in HEK293 cells stably expressing a mutant form of the human GPR119 receptor
Type: cell-based
Conditions: cAMP accumulation, GPR119 stable HEK293 cells, LANCE kit, 20 min at 37° C.
Description: Quantitative detection of cAMP accumulation from cells expressing human GPR119 receptor is achieved using Perkin Elmer's LANCE cAMP-384 Kit (Cat#AD0264) according to the manufacturer's protocol. Briefly, HEK293 cells stably expressing a mutant form of the human GPR119 receptor as assay tool (Methionine 1 replaced with the amino acid sequence […], and T327 & S329 changed to alanines; SEQ ID No. 1) are grown to 50-70% confluency in cell culture media (DMEM, 10% heat inactivated Fetal Bovine Serum, 50 I.U./mL penicillin, 50 μg/mL streptomycin, 10 mM HEPES, 20 μg/mL G418 Sulfate). On the day of the assay, GPR119 stable HEK293 cells are lifted from the tissue culture plate and 1000 cells/well are incubated along with various concentrations of test compounds for 20 min at 37° C. Detection Buffer (50 mM HEPES, 10 mM calcium chloride, 0.35% Triton X-100, 1 mg/mL BSA) containing cAMP-specific antibody is then added to all wells and allowed to equilibrate in the dark for 10 minutes at room temperature. Upon equilibration, Detection Buffer containing europium-labeled cAMP tracer complex is added to all wells and allowed to react for 1 hour at room temperature. After 1 hour, bound europium-labeled cAMP tracer is measured using a Perkin Elmer Envision plate reader. The quantity of cAMP generated in each well is derived from a standard curve. EC50 is determined using nonlinear regression analysis of the cAMP values over a range of agonist concentration (12 points spanning the range from 30 μM to 100 pM).

SMILES	EC50 [nM]
Cc1nccn1-c1ccc(C(=O)N(C2CC2)C2CCN(c3nc(C(C)C)no3)CC2)cn1 [Example 51]	593
Cc1ncnn1-c1ccc(C(=O)N(C2CC2)C2CCN(c3nc(C(C)C)no3)CC2)cn1 [Example 52]	231
Cc1nccn1-c1cnc(C(=O)N(C2CC2)C2CCN(c3nc(C(C)C)no3)CC2)cn1 [Example 53]	808
CC(C)c1noc(N2CCC(N(C(=O)c3cnc(-n4cncn4)cn3)C3CC3)CC2)n1 [Example 54]	812
Cc1nccn1-c1ncc(C(=O)N(C2CC2)C2CCN(c3nc(C(C)C)no3)CC2)cn1 [Example 55]	512
Cc1ncn(-c2cnc(C(=O)N(C3CC3)C3CCN(c4nc(C(C)C)no4)CC3)cn2)n1 [Example 56]	473
Cc1nnnn1-c1ccc(C(=O)N(C2CC2)C2CCN(c3nc(C(C)C)no3)CC2)cn1 [Example 57]	231
CCc1cnc(N2CCC(N(C(=O)c3ccc(-n4ccnc4C)nc3)C3CC3)CC2)nc1 [Example 58]	553
CCc1cnc(N2CCC(N(C(=O)c3cnc(-n4ccnc4C)cn3)C3CC3)CC2)nc1 [Example 59]	1240
CCc1cnc(N2CCC(N(C(=O)c3cnc(-n4cncn4)cn3)C3CC3)CC2)nc1 [Example 60]	29
CCc1cnc(N2CCC(N(C(=O)c3cnc(-n4cncn4)nc3)C3CC3)CC2)nc1 [Example 61]	98
CCc1cnc(N2CCC(N(C(=O)c3cnc(-n4cnc(C)n4)cn3)C3CC3)CC2)nc1 [Example 62]	185
Cc1nccn1-c1ccc(C(=O)N(C2CC2)C2CCN(c3ncc(Cl)cn3)CC2)cn1 [Example 63]	385
Cc1ncnn1-c1ccc(C(=O)N(C2CC2)C2CCN(c3ncc(Cl)cn3)CC2)cn1 [Example 64]	252
Cc1nccn1-c1cnc(C(=O)N(C2CC2)C2CCN(c3ncc(Cl)cn3)CC2)cn1 [Example 65]	333
O=C(c1cnc(-n2cncn2)nc1)N(C1CC1)C1CCN(c2ncc(Cl)cn2)CC1 [Example 66]	73
Cc1nccn1-c1ncc(C(=O)N(C2CC2)C2CCN(c3ncc(Cl)cn3)CC2)cn1 [Example 67]	45
Cc1ncn(-c2cnc(C(=O)N(C3CC3)C3CCN(c4ncc(Cl)cn4)CC3)cn2)n1 [Example 68]	125
CCc1cnc(N2CCC(N(C(=O)c3cn(-c4ccc(C#N)cn4)cn3)C3CC3)CC2)nc1 [Example 104]	61
CCc1cnc(N2CCC(N(C(=O)c3cn(-c4ccc(S(C)(=O)=O)cc4F)cn3)C3CC3)CC2)nc1 [Example 105]	233
CCc1cnc(N2CCC(N(C(=O)c3cn(-c4ccc(C#N)cc4F)cn3)C3CC3)CC2)nc1 [Example 106]	57
